Test results as given in patent publication US20220243177A1, “METHODS OF CULTURING QUIESCENT HEMATOPOIETIC STEM CELLS AND TREATMENT METHODS” (priority 2019, published 2022).

What was measured:
[1] = test system: bone marrow lineage-negative cells; assay: Lineage negative bone marrow cell culture, HSC frequency and MMP; format: cell-based, mouse; details: ConA 100 nM
Protocol: For measuring MMP and proliferation, lineage negative bone marrow (BM) cells were enriched with the EasySep Mouse hemato- poietic progenitor kit. Lineage negative (1 3 106) cells (isolated separately from four mice) were seeded onto 6 well plates in Stem-Span medium containing SCF (100 ng/ml) and TPO (20 ng/ml). Cells were treated with ConA (100nM) or the DMSO control and analyzed at 0, 6, 12 and 24 hour-time points by flow cytometry for HSC (LSKCD150+CD48−) frequencies or MMP-low and MMP- high HSCs frequencies or MMP (TMRE).

[2] = test system: MMP-low and MMP-high LT-HSCs transplanted into lethally irradiated mice; assay: Competitive in vivo long-term reconstitution assay after ex vivo lysosomal inhibition; parameters: species or system mouse
Protocol: Competitive In Vivo Long-Term Reconstitution Assay: MMP-low and MMP-high HSCs (LSKCD150^+CD48^−, LT-HSC; MMP^low/high) were FACS purified from CD45.1 mice and transplanted at the indicated dose of test cells with 2×10^5 CD45.2 bone marrow cells into lethally irradiated CD45.2 recipients (12 Gy as a split dose, 6.5 and 5.5 Gy, 4 hours apart). Donor (CD45.1) and recipient (CD45.2) mice were 8-12 weeks old. HSC frequency was determined by the limiting dilution assay (Hu & Smith, “ELDA: Extreme Limiting Dilution Analysis for Comparing Depleted and Enriched Populations in Stem Cell and Other Assays,” J. Immunol. Methods 347:7 0-78 (2009), which is hereby incorporated by reference in its entirety) based on the number of mice with […] reconstitution (CD45.1) at 16 weeks.
To assay the effect of HSC lysosomal inhibition in a in vivo competitive long-term reconstitution assay: FACS-sorted MMP-low and -high LT-HSCs (CD45.1) were treated with Concanamycin A (ConA,40 nM) or DMSO control in 96 well plates containing StemSpan with SCF (100 ng/ml) and TPO (20 ng/ml) for 4 days, after which 50 cells from each group were mixed with 2×10^5 CD45.2 total bone marrow cells and injected into lethally irradiated CD45.2 recipients and reconstituted peripheral blood was monitored up to four months.

[3] = test system: MMP-low and MMP-high HSCs; assay: Immunofluorescence staining and laser scanning confocal microscopy of treated HSCs; format: cell-based, mouse; details: ConA 40 nM, 18 hours
Protocol: Immunofluorescence Staining, Imaging, and Analysis—Laser Scanning Confocal Microscopy: FACS purified MMP-low and MMP-high HSCs (in average pooled from three mice) were seeded into retronectin-coated channel slides (Ibidi Cat# 80626) and fixed for 15 minutes with 10% formalin (1,000 cells). After washing with PBS, cells were permeabilized in PBS+0.25% Triton™ X-100 for 15 minutes and blocked for 1 hour in 3% BSA. Fixed and permeabilized cells were then incubated with primary antibodies (1:150) in PBS+1% BSA overnight at 4° C., washed and stained with fluorescence-conjugated secondary antibodies (1:1,000) for 1 hour at room temperature. Slides were sealed with mounting medium with DAPI. Images were captured using a Zeiss LSM880 Airyscan confocal microscope using a 100× objective (N.A. 1.46).
For analysis by immunofluorescence staining, MMP-low and MMP-high HSCs were FACS-purified and incubated in StemSpan medium containing SCF (100 ng/ml) and TPO (20 ng/ml) for the indicated time with the indicated compounds at 37° C. in a humidified atmosphere with 5% CO2. After treatment, cells were processed for confocal imaging as described above.
Fluorescence Intensity: Channel displaying the protein of interest were isolated and quantified on a per cell basis using the raw integrated density metric generated by the measure command. For nuclear intensity, DAPI thresholds were used to delimit the nucleus and mapped back onto the channel displaying the protein of interest to determine fluorescence intensity within the nucleus only.

[4] = test system: MMP-low and MMP-high HSCs of CAG-RFP-EGFP-LC3 bone marrow; assay: CAG-RFP-EGFP-LC3 assay; format: cell-based, mouse; details: ConA 40 nM, 3 hours; superior to starving condition
Protocol: CAG-RFP-EGFP-LC3 Assay. Total BM cells from CAG-RFP-EGFP-LC3 mice were cultured in StemSpan with SCF (10 ng/mL) and TPO (20 ng/mL) at 8×10^6 cells/ mL. Cells were either incubated with ConA (40 nM), chloroquine (CQ, […]), leupeptin ([…]) or DMSO control, or -starved amino acid-depleted RPMI 1640 media for 3 hours to induce autolysosome accumulation. Both GFP and mRFP are expressed in a single transgene, both green and red fluorescence is emitted from the same LC3 molecule, with 1:1 stoichiometry, thus allowing a more-accurate quantification of autophagosomes and autolysosomes measured by flow cytometry 3 hours post-treatment. Given the fluorescent incompatibility, only frequency of HSC with autophagosome (RFP^+GFP^+-LC3) or autolysosome formation (RFP^+-LC3) normalized to conditions with MMP-low against MMP-high HSCs was determined.

[5] = ConA 40 nM ex vivo 4 days, 50 cells transplanted
[6] = aging MMP-low and MMP-high HSCs

C/C=C/[C@H]1O[C@@](O)([C@@H](C)[C@H](O)[C@H](C)[C@H]2OC(=O)/C(OC)=C/C(C)=C/[C@@H](C)[C@@H](O)[C@@H](CC)[C@@H](O)[C@H](C)C/C(C)=C/C=C/[C@@H]2OC)C[C@@H](O[C@H]2C[C@@H](O)[C@H](OC(N)=O)[C@@H](C)O2)[C@@H]1C [ConA, concanamycin A]
MMP in recovered cells ([1]; 12-24 hours): relative decrease of MMP
frequency of HSCs recovered from 24-hour in vitro culture ([1]; 24 hours): improved frequency
retention of the MMP-low HSC fraction ([1]; twenty-four-hour): greater retention
blood production in secondary transplants ([2]; 38 weeks post-initial transplantation): increased balanced blood production
production of lineages downstream of MMP-high HSCs ([2]; ConA 40 nM ex vivo 4 days): balanced the production of lineages
increase of in vivo competitive repopulation ability, MMP-high HSCs [2, 5]: over 90 fold
increase of in vivo competitive repopulation ability, MMP-low HSCs [2, 5]: 9 fold
HSC self-renewal in secondary transplantations ([2]; young HSCs, ex vivo ConA): increased HSC self-renewal
lysosomal phenotype (LAMP2) [3]: bloated lysosomal phenotype
mTOR co-localization with lysosomes in MMP-high HSCs [3]: lost
expression of Ki67 and CDK6 ([3]; MMP-high HSCs): restored in ConA-treated MMP-high HSCs to the levels of the untreated MMP-low HSCs
mTOR signaling (mTOR, RHEB, RAGA/B, p4EBP1) in MMP-high HSCs ([3]; almost to levels of rapamycin (40 nM)-treated HSCs): repression of mTOR signaling
mTOR activity in old HSCs ([3]; aging HSCs): reduced/abolished mTOR activity
cycling status (CDK6 staining) of aging HSCs [3, 6]: reverted the cycling status
lysosomal content in old HSCs [3, 6]: increasing lysosomal content
frequency of autolysosome (RFP+)-accumulated MMP-high and MMP-low HSCs [4]: specifically promoted the frequency
